Here are results for four compounds from US9707178B2, “Pharmaceutical composition” (Lek Pharmaceuticals, d.d., priority 2006, dated 2017).

The nature of series [1]: pH of excipient measured by a glass electrode, 1 g in 100 g of water at room temperature. The format is physicochemical. The settings on record: aqueous solution or suspension. The text has this: In general we observed a best stabilization where each of the constituents being incorporated into a composition has a pH less than 9, preferably less than 8; but can have pH above 5. […] We have concluded that the excipients, being in contact with olmesartan medoxomil, being incorporated into a composition should preferably have a pH less that 8 if measured by a glass electrode in an aqueous solution or suspension containing 1 g of said excipient in 100 g of water at room temperature. Thus the pH of excipents uses in examples is as follows; lactose: about 5.2, L-HPC: about 6.7, MCC: about 6.7, stearic acid: about 5.4, Mg stearate: about 9.5, coating suspension (Example 3): about 6.6.

Series [2] is described as follows: Stability of bulk olmesartan medoxomil in solution at different pH. The series is classed as physicochemical. The method, then:
The main degradation product is olmesartan acid. […] In a solution at pH=7 the amount of formed olmesartan acid increases by 0.5% in 24 hours, while in 1M HCl the amount increases by approximately 6%. The amounts of individual and total impurities are measured in area % and determined by HPLC using the following procedure: a sample solution was prepared by diluting quantity of pulverized tablet equivalent to 25 mg of olmesartan medoxomil in 50 ml volumetric flask to volume with diluent (Eluent A+Eluent B=50%/50%). Column Waters Xbridge C18, 150×4.6 mm, 3.5 μm was used and eluted by Eluent A (0.025 M KH2PO4 adjusted to pH=2.5 with 50% H3PO4) and Eluent B (acetonitrile) with following gradient: A:B=100:0, from 15 to 30 minutes A:B=70:30, after 30 min A.B=0:100. Flow rate was […], Injection volume was 20 μl, column temperature was 30° C., detection wavelength at 225 nm.

With `CCCCCCCCCCCCCCCCCC(=O)[O-].CCCCCCCCCCCCCCCCCC(=O)[O-].[Mg+2]` [Mg stearate], in series [1], the pH of excipient entry is given as “about 9.5”. Same read-out and setting: the value for `OC[C@H]1O[C@@H](O[C@H]2[C@H](O)[C@@H](O)C(O)O[C@@H]2CO)[C@H](O)[C@@H](O)[C@H]1O` (stereo partly shown) [lactose] was “about 5.2”.

In the case of `CCCc1nc(C(C)(C)O)c(C(=O)OCc2oc(=O)oc2C)n1Cc1ccc(-c2ccccc2-c2nnn[nH]2)cc1` [olmesartan medoxomil, 4-(1-hydroxy-1-methylethyl)-2 propyl-1-[[2′-(1H-tetrazol-5-yl) [1,1′-biphenyl]-4-yl]methyl]-1H-imidazole-5-carboxylic acid (5-methyl-2-oxo-1,3-dioxol-4-yl)methyl ester], in series [2] (basic conditions), the “Hydrolysis at basic conditions” value is given as “almost completely hydrolyzes”. For the same compound, in series [2] (bulk), the “pH range in which most stable” value is 3-5. In addition, the “Increase of amount of formed olmesartan acid” value in series [2] (in 1M HCl) is “approximately 6%”; in series [2] (solution at pH=7, 24 hours), 0.5%. Consider `CCCCCCCCCCCCCCCCCC(=O)O` [stearic acid], for which the pH of excipient entry in series [1] is “about 5.4”.
